Legend:
[1] = tested on: patients with treatment-resistant depression (TRD); assay: CGI-S (Example 7); type: in vivo, human
Protocol: Overall illness severity was assessed on the Clinical Global Impression of Severity (CGI-S) scale (Guy, “ECDEU Assessment Manual for Psychopharmacology—Revised (DHEW Publ No ADM 76-338)”, Rockville, Md.: U.S. Department of Health, Education, and Welfare, Public Health Service, Alcohol, Drug Abuse, and Mental Health Administration, NIMH Psychopharmacology Research Branch, Division of Extramural Research Programs; 1976, pp 218-222). Participants assessed their severity of anxiety on the Generalized Anxiety Disorder 7-item (GADS-7) Scale (See, Tables 157 and 158). See, Spitzer, “A brief measure for assessing generalized anxiety disorder—the GAD-7”, Arch. Intern. Med., 2006, 166(10): 1092-1097.

patients with TRD = assay: Dissociation by CADSS in SPRAVATO clinical trials (label); type: in vivo, human
Description: The most common psychological effects of SPRAVATO were dissociative or perceptual changes (including distortion of time, space and illusions), derealization and depersonalization (61% to 75% of SPRAVATO-treated patients developed dissociative or perceptual changes based on the Clinician Administered Dissociative Symptoms Scale) [see Adverse Reactions (6.1)]. Given its potential to induce dissociative effects, carefully assess patients with psychosis before administering SPRAVATO; treatment should be initiated only if the benefit outweighs the risk.
SPRAVATO can cause dissociative symptoms (including derealization and depersonalization) and perceptual changes (including distortion of time and space, and illusions). In clinical trials, dissociation was transient and occurred on the day of dosing. Dissociation was evaluated by adverse event reports and the Clinician-Administered Dissociative States Scale (CADSS) questionnaire. A CADSS total score of more than 4 indicates presence of dissociative symptoms, and such an increase to a score of 4 or more occurred in a higher number of patients on esketamine compared to placebo during the short-term trials (see Table 5).

Protein binding = type: in vitro ADME
Description: Protein binding of esketamine was approximately 43% to 45%.

[2] = tested on: subjects with MDD at imminent risk for suicide; conditions: post dose
Protocol: The CADSS was measured prior to the start of each dose, at 40 minutes, 2 hours, and 4 hours postdose.

[3] = Period 1, esketamine 28 mg intranasal
[4] = Period 1, esketamine 56 mg intranasal
[5] = Period 1, esketamine 84 mg intranasal
[6] = Period 2, esketamine 28 mg intranasal
[7] = Period 2, esketamine 56 mg intranasal
[8] = Period 2, esketamine 84 mg intranasal

For `CN[C@]1(c2ccccc2Cl)CCCCC1=O` [esketamine, (S)-2-(2-chlorophenyl)-2-(methylamino)cyclohexanone], the “CGI-S Median (Range) at end point” value [1, 3] was 4.0 (3, 5), the “CGI-S Median Change (Range)” value [1, 3] was −1.0 (−2, 1) and the “CGI-S Median (Range) at end point” value [1, 4] was 4.0 (1, 5). For the same compound, the “CGI-S Median Change (Range)” value [1, 4] was −1.0 (−3, 0), the “CGI-S Median (Range) at end point” value [1, 5] was 4.0 (1, 6) and the “CGI-S Median Change (Range)” value [1, 5] was −0.5 (−4, 0). For the same compound, the “CGI-S Median (Range) at end point” value [1, 6] was 4.0 (3, 5), the “CGI-S Median Change (Range)” value [1, 6] was −1.0 (−1, 0) and the “CGI-S Median (Range) at end point” value [1, 7] was 5.0 (4, 6). For the same compound, the “CGI-S Median Change (Range)” value [1, 7] was −1.0 (−2, 0), the “CGI-S Median (Range) at end point” value [1, 8] was 4.0 (3, 5) and the “CGI-S Median Change (Range)” value [1, 8] was −1.0 (−2, 0). The “Incidence of dissociation reported as severe in intensity” value (patients with TRD; across studies) was “less than 4%”, the “Dissociation symptoms typically resolved by” value (patients with TRD; after dosing) was at most 1.5 h and the fraction unbound (Protein binding) was 0.55 to 0.57. For the same compound, the “Dissociative and perceptual change symptoms (CADSS) resolved by” value [2] was at most 2 h.
